Assay results published in patent publication EP0252028A1 (priority 1986, dated 1988).

Key:
[1] = system: Streptococcus faecalis ATCC 8043; assay: agar diffusion test, growth inhibition zones; type: cell-based
[2] = system: Mycobacterium aurum NCTC 10437; assay: agar diffusion test, growth inhibition zones
Method: The antitubercular activity was evaluated in in vitro tests against Mycobacterium aurum.

[3] = system: Candida parapsilosis; assay: agar diffusion test, growth inhibition zones; type: cell-based
[4] = system: Candida albicans 1; assay: agar diffusion test, growth inhibition zones; type: cell-based
[5] = system: Aspergillus fumigatus; assay: agar diffusion test, growth inhibition zones; type: cell-based
[6] = system: Sarcina lutea ATCC 9341; assay: agar diffusion test, growth inhibition zones; type: cell-based
[7] = system: Aspergillus Flavus; assay: agar diffusion test, growth inhibition zones; type: cell-based
[8] = system: Staphylococcus aureus ATCC 9144; assay: agar diffusion test, growth inhibition zones; type: cell-based
[9] = system: Cryptococcus neoformans; assay: agar diffusion test, growth inhibition zones; type: cell-based
[10] = system: Bacillus subtilis ATCC 6051; assay: agar diffusion test, growth inhibition zones; type: cell-based
[11] = system: Rodutorula rubra; assay: agar diffusion test, growth inhibition zones; type: cell-based
[12] = system: Candida albicans 2; assay: agar diffusion test, growth inhibition zones; type: cell-based
[13] = system: Aspergillus Niger; assay: agar diffusion test, growth inhibition zones; type: cell-based
[14] = system: Torulopsis Candida; assay: agar diffusion test, growth inhibition zones; type: cell-based
[15] = system: Candida albicans PCA6; assay: agar diffusion test, growth inhibition zones; type: cell-based
[16] = system: Candida tropicalis; assay: agar diffusion test, growth inhibition zones; type: cell-based
[17] = system: Staphylococcus epidermis ATCC 14990; assay: agar diffusion test, growth inhibition zones; type: cell-based
[18] = system: Cryptococcus albidus; assay: agar diffusion test, growth inhibition zones; type: cell-based
[19] = system: Salmonella tiphymurium ATCC 13311; assay: agar diffusion test, growth inhibition zones; type: cell-based
[20] = system: Escherichia coli ATCC 10538; assay: agar diffusion test, growth inhibition zones; type: cell-based
[21] = acute toxicity (LD50) in mice; conditions: mouse, in vivo, iv; CD1 mice
Text: The nitrofurylbenzimidazoles (I) prepared via the process of the present invention are suitable for being compounded into topically administrable ointments and creams. […] Examples of typical formulations (suited for both topical application and systemic administration) are illustrated in the above-mentioned UK patents 1,072;735 and 1,094,903.

[22] = system: Enterobacter aerogenes ATCC 13047; assay: agar diffusion test, growth inhibition zones; type: cell-based

Structure (SMILES) | Growth inhibition zones [1] [mm] | Growth inhibition zones [2] [mm] | Growth inhibition zones [3] [mm] | Growth inhibition zones [4] [mm] | Growth inhibition zones [5] [mm] | Growth inhibition zones [6] [mm] | Growth inhibition zones [8] [mm] | Growth inhibition zones [10] [mm] | Growth inhibition zones [12] [mm] | Growth inhibition zones [15] [mm] | Growth inhibition zones [17] [mm] | Growth inhibition zones [18] [mm] | Growth inhibition zones [19] [mm] | Growth inhibition zones [20] [mm] | Growth inhibition zones [22] [mm] | further results
O=[N+]([O-])c1ccc(-c2nc3cc(F)ccc3[nH]2)o1 [Es. 3, 5-fluoro-2-(5'-nitro-2'-furyl)-benzimidazole] | 33 | 35 | 34 | 34 | 30 | 27 | 28 | 27 | 34 | 34 | 29 | 35 | 23 | 21 |  | Growth inhibition zones [7]: 30 mm; Growth inhibition zones [9]: 45 mm; Growth inhibition zones [11]: 35 mm; Growth inhibition zones [13]: 38 mm; Growth inhibition zones [14]: 42 mm; Growth inhibition zones [16]: 25 mm; LD50 [21]: 240 mg/kg
O=[N+]([O-])c1ccc(-c2nc3ccccc3[nH]2)o1 [Es. 1, 2-(5'-nitro-2'-furyl)-benzimidazole] | 24 | 24 | 37 | 25 | 22 | 15 | 35 | 36 | 42 | 40 | 35 | 33 | 20 | 22 | 18 | 
O=[N+]([O-])c1ccc(-c2nc3cc(C(F)(F)F)ccc3[nH]2)o1 [Es. 5, 5-trifluoromethyl-2-(5'-nitro-2'-furyl)-benzimidazole] | 21 | 22 | 20 |  |  | 14 | 30 | 26 | 22 | 23 | 30 |  | 13 | 11 |  | 
O=[N+]([O-])c1ccc2[nH]c(-c3ccc([N+](=O)[O-])o3)nc2c1 [Es. 4, 5-nitro-2-(5'-nitro-2'-furyl)-benzimidazole] | 20 | 15 |  |  |  | 12 | 30 | 30 |  |  | 32 |  | 15 | 15 | 14 | 
O=[N+]([O-])c1ccc(-c2nc3cc(Cl)ccc3[nH]2)o1 [Es. 6, 5-chloro-2-(5'-nitro-2'-furyl)-benzimidazole] | 22 | 13 | 21 | 15 |  |  | 28 | 23 | 22 | 22 | 30 |  | 14 | 15 | 12 | 
Cc1ccc2[nH]c(-c3ccc([N+](=O)[O-])o3)nc2c1 [Es. 2, 5-methyl-2-(5'-nitro-2'-furyl)-benzimidazole] | 23 | 13 | 29 | 18 | 13 | 12 | 30 | 30 | 33 | 32 | 32 | 25 | 12 | 13 | 16 | 
